# Patent publication US9662327B2 (AGIOS PHARMACEUTICALS, INC, priority 2011, dated 2017)
# How the values were obtained:
# [1] = target: IDH1 R132H (Homo sapiens (Human), UniProt O75874, R132H); assay: Assays for IDH1 R132H Inhibitors (NADPH/aKG, resazurin detection); format: biochemical; conditions: IDH1 R132H enzyme, Table 3; read-out: R132H IC50
# In short: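 Mutant enzyme in 150 mM NaCl, 10 mM MgCl2, 20 mM Tris pH 7.5, 0.03% BSA; compound in DMSO added to substrate mix of 8 uM NADPH and 2 mM aKG. Reaction ran 50 min at room temperature, then resazurin detection mix (30 μM) added for 5 min at room temperature.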
# [2] = system: U87R132H (U87MG) cells; assay: Cellular assay for IDH1m inhibitors: inhibition of 2-HG production in U87MG (U87R132H) cells (LC-MS); format: cell-based; conditions: 48 hours
# Description: (§1) Cells (e.g., HT1080 or U87MG) are grown in T125 flasks in DMEM containing 10% FBS, 1× penicillin/streptomycin and 500 ug/mL G418. They are harvested by trypsin and seeded into 96 well white bottom plates at a density of 5000 cell/well in 100 ul/well in DMEM with 10% FBS. No cells are plates in columns 1 and 12. Cells are incubated overnight at 37 C in 5% CO2. The next day compounds are made up at 2× concentration and 100 ul are added to each cell well. The final concentration of DMSO is 0.2% and the DMSO control wells are plated in row G. The plates are then placed in the incubator for 48 hours. At 48 hours, 100 ul of media is removed from each well and analyzed by LC-MS for 2-HG concentrations. The cell plate is placed back in the incubator for another 24 hours. At 72 hours post compound addition, 10 mL/plate of Promega Cell Titer Glo reagent is thawed and mixed. The cell plate is removed from the incubator and allowed to equilibrate to room temperature. Then 100 ul of reagent is added to each well of media. The cell plate is then placed on an orbital shaker for 10 minutes and then allowed to sit at room temperature for 20 minutes. The plate is then read for luminescence with an integration time of 500 ms.
# [3] = system: HT1080 cells; assay: Cellular assay for IDH1m inhibitors: inhibition of 2-HG production in HT1080 cells (LC-MS); format: cell-based
# Description: as §1
# [4] = Homo sapiens, HT-1080, 48 hours
# Sequence of IDH1 R132H (O75874 whole entry R132H): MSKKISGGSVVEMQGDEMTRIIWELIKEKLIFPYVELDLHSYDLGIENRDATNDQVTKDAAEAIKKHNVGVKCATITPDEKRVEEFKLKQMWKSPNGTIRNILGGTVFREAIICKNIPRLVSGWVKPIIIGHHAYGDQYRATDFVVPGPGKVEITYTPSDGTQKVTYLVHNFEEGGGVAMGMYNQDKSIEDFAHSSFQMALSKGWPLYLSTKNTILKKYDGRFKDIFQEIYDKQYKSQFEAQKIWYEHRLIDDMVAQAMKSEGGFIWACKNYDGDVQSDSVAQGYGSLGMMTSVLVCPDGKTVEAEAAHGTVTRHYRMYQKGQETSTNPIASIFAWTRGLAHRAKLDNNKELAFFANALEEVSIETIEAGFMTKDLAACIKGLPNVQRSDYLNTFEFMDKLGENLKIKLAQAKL
Structure (SMILES),IC50 [1] [nM],"IC50 ([2]; Homo sapiens, U-87 MG) [nM]","IC50 [3, 4] [nM]",IC50 [2] [nM],IC50 ([3]; 48 hours) [nM]
"COCCC(=O)N1CCN(c2nc(C3CC3)c3c(c2C#N)CC(C)(C)OC3)C[C@H]1C1CC1 [Compound 434, (R)-8-cyclopropyl-6-(3-cyclopropyl-4-(3-methoxypropanoyl)piperazin-1-yl)-3,3-dimethyl-3,4-dihydro-1H-pyrano[3,4-c]pyridine-5-carbonitrile]",< 500,< 500,< 500,,
"CC1(C)Cc2c(C#N)c(N3CCN(C(=O)CC(F)(F)F)[C@H](C4CC4)C3)nc(C3CC3)c2CO1 [Compound 435, (R)-8-cyclopropyl-6-(3-cyclopropyl-4-(3,3,3-trifluoropropanoyl)piperazin-1-yl)-3,3-dimethyl-3,4-dihydro-1H-pyrano[3,4-c]pyridine-5-carbonitrile]",< 500,< 500,< 500,,
"CC(C)[C@@H]1CN(c2nc(C3CC3)c3c(c2C#N)CC(C)(C)OC3)CCN1C(=O)CCF [Compound 437, (R)-8-cyclopropyl-6-(4-(3-fluoropropanoyl)-3-isopropylpiperazin-1-yl)-3,3-dimethyl-3,4-dihydro-1H-pyrano[3,4-c]pyridine-5-carbonitrile]",< 500,1000 to 10000,1000 to 10000,,
"[2H]C1([2H])CN(c2nc(C3CC3)c3c(c2C#N)CC(C)(C)OC3)C([2H])([2H])[C@@]([2H])(C([2H])(C([2H])([2H])[2H])C([2H])([2H])[2H])N1C(=O)CCOC [Compound 438, (R)-8-cyclopropyl-3,3-dimethyl-6-(2,2,3,5,5-pentadeuterio-4-(3-methoxypropanoyl)-3-(perdeuteriopropan-2-yl)piperazin-1-yl)-3,4-dihydro-1H-pyrano[3,4-c]pyridine-5-carbonitrile]",< 500,< 500,< 500,,
"COC(=O)CC(=O)N1CCN(c2nc(C3CC3)c3c(c2C#N)CC(C)(C)OC3)C[C@H]1C1CC1 [Compound 440, (R)-methyl 3-(4-(5-cyano-8-cyclopropyl-3,3-dimethyl-3,4-dihydro-1H-pyrano[3,4-c]pyridin-6-yl)-2-cyclopropylpiperazin-1-yl)-3-oxopropanoate]",< 500,< 500,< 500,,
"[2H]C([2H])([2H])C([2H])(C([2H])([2H])[2H])[C@@]1([2H])N(C(=O)CCOC)C([2H])([2H])C([2H])([2H])N(c2nc(C3CC3)c3c(c2C#N)CC(C)(C)OC3)C1([2H])[2H] [Compound 441, (R)-8-cyclopropyl-6-(2,2,3,3,5,6,6-heptadeuterio-4-(3-methoxypropanoyl)-5-(perdeuteriopropan-2-yl)piperazin-1-yl)-3,3-dimethyl-3,4-dihydro-1H-pyrano[3,4-c]pyridine-5-carbonitrile]",< 500,< 500,< 500,,
"CC(O)CC(=O)N1CCN(c2nc(C3CC3)c3c(c2C#N)CC(C)(C)OC3)C[C@H]1C1CC1 (stereo partly drawn) [Compound 442, 8-cyclopropyl-6-((3R)-3-cyclopropyl-4-(3-hydroxybutanoyl)piperazin-1-yl)-3,3-dimethyl-3,4-dihydro-1H-pyrano[3,4-c]pyridine-5-carbonitrile]",< 500,500 to 1000,500 to 1000,,
"CC(C)[C@@H]1CN(c2nc(C3CC3)c3c(c2C#N)CC(C)(C)OC3)CCN1C(=O)CCCO [Compound 443, (R)-8-cyclopropyl-6-(4-(4-hydroxybutanoyl)-3-isopropylpiperazin-1-yl)-3,3-dimethyl-3,4-dihydro-1H-pyrano[3,4-c]pyridine-5-carbonitrile]",< 500,1000 to 10000,1000 to 10000,,
"[2H]C1([2H])CN(C(=O)CCOC)[C@]([2H])(C([2H])(C([2H])([2H])[2H])C([2H])([2H])[2H])CN1c1nc(C2CC2)c2c(c1C#N)CC(C)(C)OC2 [Compound 444, (R)-8-cyclopropyl-3,3-dimethyl-6-(2,2,5-trideuterio-4-(3-methoxypropanoyl)-5-(perdeuteriopropan-2-yl)piperazin-1-yl)-3,4-dihydro-1H-pyrano[3,4-c]pyridine-5-carbonitrile]",< 500,< 500,< 500,,
"CSCC(=O)N1CCN(c2nc(C3CC3)c3c(c2C#N)CC(C)(C)OC3)C[C@H]1C(C)C [Compound 445, (R)-8-cyclopropyl-6-(3-isopropyl-4-(2-(methylthio)acetyl)piperazin-1-yl)-3,3-dimethyl-3,4-dihydro-1H-pyrano[3,4-c]pyridine-5-carbonitrile]",< 500,< 500,< 500,,
[2H]C([2H])([2H])C([2H])(C([2H])([2H])[2H])[C@@]1([2H])N(C(=O)CCC(=O)OC)C([2H])([2H])C([2H])([2H])N(c2nc(C3CC3)c3c(c2C#N)CC(C)(C)OC3)C1([2H])[2H] [Compound 450],< 500,< 500,< 500,,
"[2H]C([2H])([2H])C([2H])(C([2H])([2H])[2H])[C@@]1([2H])N(C(=O)CC(F)(F)F)C([2H])([2H])C([2H])([2H])N(c2nc(C3CC3)c3c(c2C#N)CC(C)(C)OC3)C1([2H])[2H] [Compound 452, (R)-8-cyclopropyl-6-(2,2,3,3,5,6,6-heptadeuterio-5-(perdeuteriopropan-2-yl)-4-(3,3,3-trifluoropropanoyl)piperazin-1-yl)-3,3-dimethyl-3,4-dihydro-1H-pyrano[3,4-c]pyridine-5-carbonitrile]",< 500,500 to 1000,1000 to 10000,,
COC(=O)[C@@H]1C[C@H]1C(=O)N1CCN(c2nc(C3CC3)c3c(c2C#N)CC(C)(C)OC3)C[C@H]1C(C)C [Compound 454],< 500,,,500 to 1000,500 to 1000
"CC(C)[C@@H]1CN(c2nc(C3CC3)c3c(c2C#N)CC(C)(C)OC3)CCN1C(=O)Cc1nnco1 [Compound 455, (R)-6-(4-(2-(1,3,4-oxadiazol-2-yl)acetyl)-3-isopropylpiperazin-1-yl)-8-cyclopropyl-3,3-dimethyl-3,4-dihydro-1H-pyrano[3,4-c]pyridine-5-carbonitrile]",500 to 1000,< 500,< 500,,
"CCOC(=O)CCC(=O)N1CCN(c2nc(C3CC3)c3c(c2C#N)CC(C)(C)OC3)C[C@H]1C(C)C [Compound 456, (R)-ethyl-4-(4-(5-cyano-8-cyclopropyl-3,3-dimethyl-3,4-dihydro-1H-pyrano[3,4-c]pyridin-6-yl)-2-isopropylpiperazin-1-yl)-4-oxobutanoate]",< 500,< 500,500 to 1000,,
"CC(C)OC(=O)CCC(=O)N1CCN(c2nc(C3CC3)c3c(c2C#N)CC(C)(C)OC3)C[C@H]1C(C)C [Compound 457, (R)-isopropyl 4-(4-(5-cyano-8-cyclopropyl-3,3-dimethyl-3,4-dihydro-1H-pyrano[3,4-c]pyridin-6-yl)-2-isopropylpiperazin-1-yl)-4-oxobutanoate]",< 500,500 to 1000,500 to 1000,,
"CC1(C)Cc2c(C#N)c(N3CCN(C(=O)CCO)[C@H](C4CC4)C3)nc(C3CC3)c2CO1 [Compound 460, (R)-8-cyclopropyl-6-(3-cyclopropyl-4-(3-hydroxypropanoyl)piperazin-1-yl)-3,3-dimethyl-3,4-dihydro-1H-pyrano[3,4-c]pyridine-5-carbonitrile]",< 500,< 500,< 500,,
"CC1(C)Cc2c(C#N)c(N3CCN(C(=O)C4CC4)[C@H](C4CC4)C3)nc(C3CC3)c2CO1 [Compound 461, (R)-6-(4-(cyclopropanecarbonyl)-3-cyclopropylpiperazin-1-yl)-8-cyclopropyl-3,3-dimethyl-3,4-dihydro-1H-pyrano[3,4-c]pyridine-5-carbonitrile]",< 500,< 500,500 to 1000,,
"CC(C)[C@@H]1CN(c2nc(C3CC3)c3c(c2C#N)CC(C)(C)OC3)CCN1C(=O)[C@@H]1C[C@H]1CO [Compound 462, 8-Cyclopropyl-6-((R)-4-((1R,2R)-2-(hydroxymethyl)cyclopropanecarbonyl)-3-isopropylpiperazin-1-yl)-3,3-dimethyl-3,4-dihydro-1H-pyrano[3,4-c]pyridine-5-carbonitrile]",< 500,500 to 1000,500 to 1000,,
"CC1(C)Cc2c(C#N)c(N3CCN(C(=O)C4CC4)C(C(F)F)C3)nc(C3CC3)c2CO1 (stereo not drawn) [Compound 463, 6-(4-(cyclopropanecarbonyl)-3-(difluoromethyl)piperazin-1-yl)-8-cyclopropyl-3,3-dimethyl-3,4-dihydro-1H-pyrano[3,4-c]pyridine-5-carbonitrile]",500 to 1000,1000 to 10000,1000 to 10000,,
"CCOC(=O)[C@@H]1C[C@H]1C(=O)N1CCN(c2nc(C3CC3)c3c(c2C#N)CC(C)(C)OC3)C[C@H]1C(C)C [Compound 465, (1R,2R)-ethyl 2-((R)-4-(5-cyano-8-cyclopropyl-3,3-dimethyl-3,4-dihydro-1H-pyrano[3,4-c]pyridin-6-yl)-2-isopropylpiperazine-1-carbonyl)cyclopropanecarboxylate]",< 500,< 500,500 to 1000,,
